Measured values from ChEMBL document CHEMBL1909046, “DrugMatrix in vitro pharmacology data”.

Tests used:
[1] = biological target: T1, B2 bradykinin receptor (Homo sapiens, UniProt P30411); type: cell membranes, Membrane; conditions: chem-1; note: in other assays of this panel Not Active means under 50% inhibition at 10 µM
T1 sequence (P30411 whole entry): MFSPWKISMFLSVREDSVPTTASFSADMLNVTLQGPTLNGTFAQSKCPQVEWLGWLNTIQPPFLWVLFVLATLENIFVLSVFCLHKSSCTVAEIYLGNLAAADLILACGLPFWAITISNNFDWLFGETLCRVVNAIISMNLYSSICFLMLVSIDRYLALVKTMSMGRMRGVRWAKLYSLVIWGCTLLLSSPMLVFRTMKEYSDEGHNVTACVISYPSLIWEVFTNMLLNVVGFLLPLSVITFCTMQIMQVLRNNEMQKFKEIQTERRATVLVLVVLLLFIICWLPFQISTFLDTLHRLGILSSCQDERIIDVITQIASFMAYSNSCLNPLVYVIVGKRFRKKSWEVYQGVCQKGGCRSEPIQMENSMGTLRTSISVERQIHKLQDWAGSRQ

[2] = biological target: Receptor tyrosine-protein kinase erbB-2 (Homo sapiens, UniProt P04626); assay: biochemical; type: cell-based, Insect cells;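 note: inhibition of HER2 kinase enzyme activity, measured with Poly(Glu:Tyr) as the phosphorylation substrate; in other assays of this panel Not Active means under 50% inhibition at 10 µM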
[3] = biological target: Vasopressin V1a receptor (Homo sapiens, UniProt P37288); type: cell membranes, Membrane; conditions: hek293; note: in other assays of this panel Not Active means under 50% inhibition at 10 µM
[4] = biological target: T2, Caspase-1 (Homo sapiens, UniProt P29466); parameters: species or system Escherichia coli;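 note: Caspase-1 enzyme inhibition assay with a peptide substrate; in other assays of this panel Not Active means under 50% inhibition at 10 µM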
T2 sequence (P29466 whole entry): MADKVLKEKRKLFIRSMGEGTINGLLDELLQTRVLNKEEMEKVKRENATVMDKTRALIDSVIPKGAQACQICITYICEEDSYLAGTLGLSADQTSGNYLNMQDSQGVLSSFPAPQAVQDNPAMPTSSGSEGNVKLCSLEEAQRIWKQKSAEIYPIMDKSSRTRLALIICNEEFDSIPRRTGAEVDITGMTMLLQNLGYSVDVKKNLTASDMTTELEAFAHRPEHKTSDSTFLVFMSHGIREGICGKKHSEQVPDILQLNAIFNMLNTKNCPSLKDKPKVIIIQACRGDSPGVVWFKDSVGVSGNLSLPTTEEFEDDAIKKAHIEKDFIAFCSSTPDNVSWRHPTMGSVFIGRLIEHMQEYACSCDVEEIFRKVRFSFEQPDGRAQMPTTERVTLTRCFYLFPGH

[5] = biological target: T3, C-X-C chemokine receptor type 1 (Homo sapiens, UniProt P25024); note: in other assays of this panel Not Active means under 50% inhibition at 10 µM
T3 sequence (P25024 whole entry): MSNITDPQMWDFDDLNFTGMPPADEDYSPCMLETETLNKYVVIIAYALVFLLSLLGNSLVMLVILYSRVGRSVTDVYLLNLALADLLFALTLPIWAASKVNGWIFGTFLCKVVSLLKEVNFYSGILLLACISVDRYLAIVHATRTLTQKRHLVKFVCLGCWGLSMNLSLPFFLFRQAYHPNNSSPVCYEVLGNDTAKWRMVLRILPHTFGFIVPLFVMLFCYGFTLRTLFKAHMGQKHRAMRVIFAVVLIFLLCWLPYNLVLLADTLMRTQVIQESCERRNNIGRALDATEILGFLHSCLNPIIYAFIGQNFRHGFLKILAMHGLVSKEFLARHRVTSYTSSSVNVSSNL

[6] = biological target: Carbonic anhydrase 2 (Homo sapiens, UniProt P00918); assay: DRUGMATRIX: Carbonic Anhydrase II enzyme inhibition (substrate: 4-Nitrophenyl acetate (4-NPA)); type: tissue-based, Erythrocyte; conditions: Not Active = under 50% inhibition at 10 µM
[7] = biological target: T4, Type-2 angiotensin II receptor (Homo sapiens, UniProt P50052); type: cell-based; conditions: cho-k1; note: in other assays of this panel Not Active means under 50% inhibition at 10 µM
T4 sequence (P50052 whole entry): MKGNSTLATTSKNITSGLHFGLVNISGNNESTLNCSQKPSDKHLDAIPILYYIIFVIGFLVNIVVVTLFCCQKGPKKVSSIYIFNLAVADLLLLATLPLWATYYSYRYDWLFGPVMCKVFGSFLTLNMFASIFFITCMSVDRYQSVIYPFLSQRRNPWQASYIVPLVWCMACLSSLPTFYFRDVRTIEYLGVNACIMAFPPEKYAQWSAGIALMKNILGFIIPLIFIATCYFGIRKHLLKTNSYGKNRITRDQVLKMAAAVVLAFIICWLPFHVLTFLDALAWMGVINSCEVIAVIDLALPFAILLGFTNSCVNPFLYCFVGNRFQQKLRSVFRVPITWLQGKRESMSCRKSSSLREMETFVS

[8] = biological target: Mitogen-activated protein kinase 1 (Homo sapiens, UniProt P28482); assay: DRUGMATRIX: Protein Serine/Threonine Kinase, ERK2 enzyme inhibition (substrate: Myelin Basic Protein); parameters: species or system Escherichia coli; conditions: Not Active = under 50% inhibition at 10 µM
[9] = biological target: T5, Adenosine receptor A3 (Homo sapiens, UniProt P0DMS8); type: cell membranes, CHO-K1, Membrane
T5 sequence (P0DMS8 whole entry): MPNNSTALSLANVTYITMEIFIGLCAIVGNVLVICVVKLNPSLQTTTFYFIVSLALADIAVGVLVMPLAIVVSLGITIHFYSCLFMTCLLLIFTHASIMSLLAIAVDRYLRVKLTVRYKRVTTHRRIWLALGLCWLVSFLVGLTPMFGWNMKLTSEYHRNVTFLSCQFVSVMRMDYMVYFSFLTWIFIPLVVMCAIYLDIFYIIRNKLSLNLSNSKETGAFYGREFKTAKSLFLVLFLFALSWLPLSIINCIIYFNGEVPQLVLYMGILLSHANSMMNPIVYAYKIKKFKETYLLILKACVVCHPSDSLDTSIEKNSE

[10] = biological target: Beta-3 adrenergic receptor (Homo sapiens, UniProt P13945); assay: DRUGMATRIX: Adrenergic beta3 radioligand binding (ligand: [125I] Cyanopindolol); type: cell membranes, HEK293, Membrane; conditions: Not Active = under 50% inhibition at 10 µM
[11] = DRUGMATRIX: Phorbol Ester radioligand binding (ligand: [3H] PDBu); type: cell membranes, Mus musculus, ICR, Brain, Membrane; conditions: Not Active = under 50% inhibition at 10 µM
[12] = DRUGMATRIX: Calcium Channel Type L, Dihydropyridine radioligand binding (ligand: [3H] Nitrendipine); type: cell membranes, Rattus norvegicus, Wistar, Cerebral cortex, Membrane; conditions: Not Active = under 50% inhibition at 10 µM
[13] = DRUGMATRIX: Serotonin (5-Hydroxytryptamine) 5-HT3 radioligand binding (ligand: [3H] GR-65630); type: cell membranes, Membrane; conditions: hek293; Not Active = under 50% inhibition at 10 µM
[14] = DRUGMATRIX: Phosphodiesterase PDE3 enzyme inhibition (substrate: [3H]cAMP + cAMP); type: tissue-based, Homo sapiens; conditions: platelet; Not Active = under 50% inhibition at 10 µM
[15] = DRUGMATRIX: Glutamate, AMPA radioligand binding (ligand: [3H] AMPA); type: cell membranes, Rattus norvegicus, Wistar, Cerebral cortex, Membrane; conditions: Not Active = under 50% inhibition at 10 µM
[16] = biological target: Mu-type opioid receptor (Homo sapiens, UniProt P35372); assay: DRUGMATRIX: Opiate mu (OP3, MOP) radioligand binding (ligand: [3H] Diprenorphine); type: cell membranes, CHO-K1, Membrane; conditions: cho-k1; Not Active = under 50% inhibition at 10 µM
Mu-type opioid receptor, sequence (P35372 whole entry): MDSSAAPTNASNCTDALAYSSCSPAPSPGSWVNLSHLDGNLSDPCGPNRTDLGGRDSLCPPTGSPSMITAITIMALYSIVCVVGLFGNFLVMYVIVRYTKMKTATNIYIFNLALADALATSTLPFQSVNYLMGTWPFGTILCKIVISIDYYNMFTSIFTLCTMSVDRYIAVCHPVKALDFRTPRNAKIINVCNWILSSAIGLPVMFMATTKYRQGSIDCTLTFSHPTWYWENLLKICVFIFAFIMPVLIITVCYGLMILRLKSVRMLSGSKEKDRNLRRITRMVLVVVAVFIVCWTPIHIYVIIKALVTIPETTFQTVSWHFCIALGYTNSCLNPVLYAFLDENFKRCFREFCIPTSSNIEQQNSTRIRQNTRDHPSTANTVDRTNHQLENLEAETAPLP

Mitogen-activated protein kinase 1, sequence (P28482 whole entry): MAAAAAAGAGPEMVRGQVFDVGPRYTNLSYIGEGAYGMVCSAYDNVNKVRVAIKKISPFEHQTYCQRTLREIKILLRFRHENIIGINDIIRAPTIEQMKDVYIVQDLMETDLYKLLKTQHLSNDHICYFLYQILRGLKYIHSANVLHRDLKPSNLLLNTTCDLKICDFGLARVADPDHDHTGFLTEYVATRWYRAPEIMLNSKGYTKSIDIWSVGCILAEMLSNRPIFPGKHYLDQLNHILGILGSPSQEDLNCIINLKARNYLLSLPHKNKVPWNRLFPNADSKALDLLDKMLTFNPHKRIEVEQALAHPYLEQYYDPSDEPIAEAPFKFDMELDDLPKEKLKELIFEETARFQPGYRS
Vasopressin V1a receptor, sequence (P37288 whole entry): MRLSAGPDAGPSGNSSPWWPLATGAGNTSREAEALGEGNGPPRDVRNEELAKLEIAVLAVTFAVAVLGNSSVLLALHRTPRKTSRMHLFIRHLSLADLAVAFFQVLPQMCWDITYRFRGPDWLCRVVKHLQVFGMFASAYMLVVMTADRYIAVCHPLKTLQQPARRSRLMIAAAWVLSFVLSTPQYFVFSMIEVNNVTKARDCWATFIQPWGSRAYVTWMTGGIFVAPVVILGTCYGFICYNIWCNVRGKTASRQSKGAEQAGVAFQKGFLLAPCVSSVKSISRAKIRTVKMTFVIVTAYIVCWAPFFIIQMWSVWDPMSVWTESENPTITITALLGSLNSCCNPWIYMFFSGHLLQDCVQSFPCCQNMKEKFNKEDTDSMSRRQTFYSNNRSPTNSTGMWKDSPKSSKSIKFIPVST
Beta-3 adrenergic receptor, sequence (P13945 whole entry): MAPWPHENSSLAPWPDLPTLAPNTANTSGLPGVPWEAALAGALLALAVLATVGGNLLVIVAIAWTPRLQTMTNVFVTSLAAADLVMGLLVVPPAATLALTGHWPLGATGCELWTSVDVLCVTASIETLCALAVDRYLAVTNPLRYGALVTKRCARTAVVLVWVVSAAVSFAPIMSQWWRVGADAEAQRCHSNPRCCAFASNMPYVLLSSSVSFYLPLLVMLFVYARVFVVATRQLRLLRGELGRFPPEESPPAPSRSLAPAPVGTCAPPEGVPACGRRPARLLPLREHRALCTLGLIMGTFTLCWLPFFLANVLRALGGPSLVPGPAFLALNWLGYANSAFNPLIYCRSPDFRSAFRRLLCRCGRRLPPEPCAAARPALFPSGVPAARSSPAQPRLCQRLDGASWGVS

Row | Molecule | IC50 [1] | IC50 [3] | IC50 [4] | IC50 [5] | IC50 ([6]; erythrocyte) | IC50 [7] | IC50 [8] | IC50 ([9]; cho-k1) | IC50 ([2]; insect cells) | IC50 ([10]; hek293) | IC50 [11] | Ki [11] | IC50 [12] | Ki [12] | IC50 [13] | Ki [13] | IC50 [14] | Ki [14] | IC50 [15] | Ki [15] | also measured
1 | COc1ccc(CCN2CCC(Nc3nc4ccccc4n3Cc3ccc(F)cc3)CC2)cc1 [ASTEMIZOLE] | Not Active | Not Active | Not Active | Not Active | Not Active | Not Active | Not Active |  |  |  |  |  |  |  |  |  |  |  |  |  | IC50 ([2]; read-out: IC50): 13.1 µM
2 | Clc1ccccc1C(c1ccccc1)(c1ccccc1)n1ccnc1 [CLOTRIMAZOLE] | Not Active | Not Active | Not Active | Not Active |  | Not Active | Not Active |  |  |  |  |  |  |  |  |  |  |  |  |  | IC50 ([9]; read-out: IC50): 4750 nM; Ki ([9]; read-out: Ki): 2690 nM; IC50 ([2]; read-out: IC50): 66.4 µM; IC50 ([10]; read-out: IC50): 7.21 µM; Ki ([10]; read-out: Ki): 5.41 µM; IC50 ([6]; read-out: IC50): 30.1 µM
3 | O=C(CCCN1CCC(O)(c2ccc(Cl)cc2)CC1)c1ccc(F)cc1 [HALOPERIDOL] | Not Active | Not Active | Not Active | Not Active | Not Active | Not Active | Not Active | Not Active | Not Active | Not Active |  |  |  |  |  |  |  |  |  |  | 
4 | NNc1ccccc1 [PHENYLHYDRAZINE] | Not Active | Not Active | Not Active | Not Active | Not Active | Not Active | Not Active | Not Active | Not Active | Not Active | Not Active | Not Active | Not Active | Not Active | Not Active | Not Active | Not Active | Not Active | Not Active | Not Active | 
5 | O=[N+]([O-])c1cc([As](=O)(O)O)ccc1O [ROXARSONE] | Not Active | Not Active | Not Active | Not Active | Not Active | Not Active | Not Active | Not Active | Not Active | Not Active | Not Active | Not Active | Not Active | Not Active | Not Active | Not Active | Not Active | Not Active | Not Active | Not Active | Ki ([9]; cho-k1): Not Active; Ki [1]: Not Active; Ki ([2]; insect cells): Not Active; Ki ([10]; hek293): Not Active; Ki [3]: Not Active; Ki [4]: Not Active; Ki [5]: Not Active; Ki ([6]; erythrocyte): Not Active; Ki [7]: Not Active; Ki [8]: Not Active
6 | Nc1ccc(S(N)(=O)=O)cc1 [SULFANILAMIDE] | Not Active | Not Active | Not Active | Not Active |  | Not Active | Not Active | Not Active | Not Active | Not Active | Not Active | Not Active | Not Active | Not Active | Not Active | Not Active | Not Active | Not Active | Not Active | Not Active | IC50 [16]: Not Active
7 | COc1cccc(C2(O)CCCCC2CN(C)C)c1 (stereo not given) [TRAMADOL] | Not Active | Not Active | Not Active | Not Active | Not Active | Not Active | Not Active | Not Active | Not Active | Not Active |  |  |  |  |  |  |  |  |  |  | 
8 | COc1ccc(C(CN(C)C)C2(O)CCCCC2)cc1 (stereo not given) [VENLAFAXINE] | Not Active | Not Active | Not Active | Not Active | Not Active | Not Active | Not Active | Not Active | Not Active | Not Active | Not Active | Not Active | Not Active | Not Active | Not Active | Not Active | Not Active | Not Active | Not Active | Not Active | 
9 | IVERMECTIN | Not Active | Not Active | Not Active | Not Active | Not Active | Not Active | Not Active |  | Not Active | Not Active | Not Active | Not Active | Not Active | Not Active | Not Active | Not Active | Not Active | Not Active | Not Active | Not Active | IC50 ([9]; cho-k1, read-out: IC50): 512 nM; Ki ([9]; cho-k1, read-out: Ki): 289 nM; Ki [1]: Not Active; Ki ([2]; insect cells): Not Active; Ki ([10]; hek293): Not Active; Ki [3]: Not Active; Ki [4]: Not Active; Ki [5]: Not Active; Ki ([6]; erythrocyte): Not Active; Ki [7]: Not Active; Ki [8]: Not Active
